Data from article PMC7096398, “Oxytocin Receptors Regulate Social Preference in Zebrafish” (Scientific Reports, 2020).
Several values for one entry are separate records, joined by “and”; a condition that tells them apart may be missing. Equal values may be shown once. Read-outs that look alike come from different tables or passages of the source. Positions of bridges follow the written chain, without caps; N, C: chain ends. Residues, ends and D or L forms follow the SMILES beside them.

Experiments:
zebrafish = test system: zebrafish; set-up: method as in 4 sources, ref 42 = [42]; PMID 21956239; doi:10.1007/s00213-011-2482-2; 42. Braida D Neurohypophyseal hormones manipulation modulate social and anxiety-related behavior in zebrafish Psychopharmacology (Berl) 2012 220 319 330 10.1007/s00213-011-2482-2 21956239 ||| ref 44 = [44]; PMID 27247142; doi:10.1016/j.bbr.2016.05.059; 44. Zimmermann FF Gaspary KV Siebel AM Bonan CD Oxytocin reversed MK-801-induced social interaction and aggression deficits in zebrafish Behav Brain Res 2016 311 368 374 10.1016/j.bbr.2016.05.059 2724 ||| ref 51 = [51]; doi:10.1163/1568539x-00003261; 51. Lindeyer CM Langen EMA Swaney WT Reader SM Nonapeptide influences on social behaviour: effects of vasotocin and isotocin on shoaling and interaction in zebrafish Behaviour 2015 152 897 915 10.1163 ||| ref 27 = [27]; PMID 26347614; doi:10.3389/fncir.2015.00039; 27. Dreosti E Lopes G Kampff AR Wilson SW Development of social behavior in young zebrafish Front Neural Circuits 2015 9 39 10.3389/fncir.2015.00039 26347614 PMC4539524; conditions: cited from earlier work
Excerpt: Thus far, dopamine[56] and serotonin[57] in the mesolimbic system and excitation-inhibition balance[58] seem to play a prominent role in social investigation in rodents. Similarly, levels of dopamine and serotonin are modulated in socially interacting fish[59]–[61] and social preference behaviour decreases after treatment with a dopamine D1 receptor antagonist. […] In rodents, release of ... || (+ 1 further places)

Oxtr = target: T1, Oxtr (Danio rerio, UniProt E4W699); assay: Inositol phosphate accumulation assay, agonist potency at Oxtr; assay type: cell-based, zebrafish
T1 construct: host or cells: HEK293
T1 sequence (E4W699 1-388): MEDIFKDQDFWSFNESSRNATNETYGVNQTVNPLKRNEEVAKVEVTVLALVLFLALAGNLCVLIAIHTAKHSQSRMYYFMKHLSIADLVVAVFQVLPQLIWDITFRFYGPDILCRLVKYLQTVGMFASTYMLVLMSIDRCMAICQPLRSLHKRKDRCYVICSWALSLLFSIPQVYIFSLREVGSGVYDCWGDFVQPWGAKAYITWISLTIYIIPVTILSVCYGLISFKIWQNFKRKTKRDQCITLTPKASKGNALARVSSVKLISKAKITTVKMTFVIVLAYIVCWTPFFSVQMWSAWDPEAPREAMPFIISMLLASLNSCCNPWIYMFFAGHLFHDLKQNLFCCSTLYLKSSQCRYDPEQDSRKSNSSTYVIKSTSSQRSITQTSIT
Description: (§1) The receptor constructs were ordered from GeneScript and subcloned into a pcDNA3.1/CT-GFP-TOPO vector. The coding sequences of the GenBank entries NM_001199370.1 (oxtr), NM_001199369.1 (oxtrl), NM_001301114.1 (avpr1aa), and NM_001297676.1 (avpr1ab) were used for synthesis. The stop codons were removed, and an additional […] was added to facilitate hybrid protein expression with GFP in frame from the vector. The GCCACC Kozak sequence was inserted before the start codons. After transformation of the plasmid constructs into TOP10 competent cells (Thermo Fisher Scientific), the Maxiprep (Thermo Fisher Scientific) method was used to amplify the plasmids for transfection.
(§2) The Inositol phosphate accumulation assay was performed according to previous descriptions to measure the potency of different ligands for zebrafish different oxytocin related receptors. Each receptor construct was transfected into HEK293 cells using Lipofectamine 2000 (Thermo Fisher Scientific). Myo2-^3H-inositol (PerkinElmer) at 3 μCi/mL was added the day after transfection. On day three, cells were re-suspended in assay buffer (10 mM LiCl, 20 mM HEPES, 137 mM NaCl, 5 mM KCl, 0.44 mM KH2PO4, 4.2 mM NaHCO3, 1.2 mM MgCl2, 1 mM CaCl2, and 10 mM glucose), after incubation in a PBS/EDTA mixture (0.2 g/L). After 10 minutes of pre-incubation at 37 °C, the cells were stimulated with serial dilution of peptides for 25 minutes at 37 °C. […] Cells were lysed for 60 minutes at 4 °C with an equal volume of 0.8 M perchloric acid, and then neutralised with KOH/KHCO3 solution. Ion exchange chromatography on AG 1-X8 resin (Bio-Rad) was used to collect the generated ^3H-inositol phosphates. The resin was washed with buffer containing 5 mM Na2B4O7 and 60 mM NH4-formate and eluted with buffer containing 1 M NH4-formate and 0.1 M formic acid. Samples were mixed with OptiPhase HiSafe (PerkinElmer Waltham, MA, USA) and ^3H radioactivity was measured with a Tri-Carb 2910TR liquid scintillation counter (PerkinElmer Waltham, MA, USA). The assays were performed in duplicate for each concentration and repeated at least 3 times.

Oxtrl = target: T2, Oxtrl (Danio rerio, UniProt E4W698); assay: Inositol phosphate accumulation assay, agonist potency at Oxtrl; assay type: cell-based, zebrafish
T2 construct: host or cells: HEK293
T2 sequence (E4W698 1-382): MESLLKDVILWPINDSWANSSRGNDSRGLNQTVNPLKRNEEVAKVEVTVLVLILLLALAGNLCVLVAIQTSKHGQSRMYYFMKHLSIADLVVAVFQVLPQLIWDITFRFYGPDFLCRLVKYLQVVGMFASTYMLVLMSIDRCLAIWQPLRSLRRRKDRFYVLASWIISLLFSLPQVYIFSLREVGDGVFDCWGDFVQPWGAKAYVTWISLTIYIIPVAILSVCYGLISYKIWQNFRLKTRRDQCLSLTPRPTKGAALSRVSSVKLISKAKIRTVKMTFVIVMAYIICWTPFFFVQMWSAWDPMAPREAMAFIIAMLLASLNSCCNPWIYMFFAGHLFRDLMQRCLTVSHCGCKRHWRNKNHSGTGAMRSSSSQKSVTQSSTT
Description: as §1, §2

Avpr1aa = target: T3, Avpr1aa (Danio rerio, UniProt A0A8M1P1H3); assay: Inositol phosphate accumulation assay, agonist potency at Avpr1aa; assay type: cell-based, zebrafish
T3 sequence (A0A8M1P1H3 1-379): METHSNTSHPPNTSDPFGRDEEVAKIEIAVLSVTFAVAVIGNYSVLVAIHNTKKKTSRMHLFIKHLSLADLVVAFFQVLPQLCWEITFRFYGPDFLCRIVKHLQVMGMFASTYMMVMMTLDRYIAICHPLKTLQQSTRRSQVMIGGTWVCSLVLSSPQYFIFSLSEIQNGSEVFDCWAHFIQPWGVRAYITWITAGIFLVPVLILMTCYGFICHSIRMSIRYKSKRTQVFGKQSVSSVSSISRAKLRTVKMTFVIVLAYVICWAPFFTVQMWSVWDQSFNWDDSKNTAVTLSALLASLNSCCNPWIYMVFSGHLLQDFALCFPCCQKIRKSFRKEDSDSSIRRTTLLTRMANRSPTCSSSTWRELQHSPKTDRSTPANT
Description: as §1, §2

Avpr1ab = target: T4, Avpr1ab (Danio rerio, UniProt A0A8M1P6E3); assay: Inositol phosphate accumulation assay, agonist potency at Avpr1ab; assay type: cell-based, zebrafish
T4 sequence (A0A8M1P6E3 1-410): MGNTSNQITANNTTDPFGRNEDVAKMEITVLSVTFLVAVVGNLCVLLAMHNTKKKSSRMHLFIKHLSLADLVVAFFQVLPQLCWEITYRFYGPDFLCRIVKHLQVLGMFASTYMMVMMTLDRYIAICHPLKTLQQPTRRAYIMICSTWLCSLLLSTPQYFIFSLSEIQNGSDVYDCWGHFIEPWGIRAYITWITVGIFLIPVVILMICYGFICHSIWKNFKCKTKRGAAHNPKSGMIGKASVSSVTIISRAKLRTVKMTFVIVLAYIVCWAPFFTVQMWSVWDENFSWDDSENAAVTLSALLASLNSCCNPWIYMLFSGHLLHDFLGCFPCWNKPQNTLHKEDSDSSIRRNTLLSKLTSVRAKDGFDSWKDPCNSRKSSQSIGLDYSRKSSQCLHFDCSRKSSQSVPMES
Description: as §1, §2

[1] = read-out: Potency (EC50) at Oxtrl
[2] = HEK293 cells transfected with zebrafish Avpr1aa, 3H-inositol phosphate accumulation, 10 min pre-incubation, 25 min stimulation, 37 °C, duplicates, table: mean ± SEM, n = 3 (zOT n = 4), read-out: Potency (EC50) at Avpr1aa
[3] = HEK293 cells transfected with zebrafish Avpr1ab, 3H-inositol phosphate accumulation, 10 min pre-incubation, 25 min stimulation, 37 °C, duplicates, table: mean ± SEM, n = 3, read-out: Potency (EC50) at Avpr1ab

| Compound | EC50 (Oxtr) | EC50 (Oxtrl; [1]) | EC50 (Avpr1aa; [2]) | EC50 (Avpr1ab; [3]) | other results |
| --- | --- | --- | --- | --- | --- |
| C[C@]12N[C@H](Cc3ccccc31)c1ccccc12 [MK-801] | – | – | – | – | Social preference deficits (zebrafish; zebrafish): deficits in social preference induced |
| CC[C@H](C)[C@@H]1NC(=O)[C@H](Cc2ccc(O)cc2)NC(=O)[C@@H](N)CSSC[C@@H](C(=O)N2CCC[C@H]2C(=O)N[C@@H](CC(C)C)C(=O)NCC(N)=O)NC(=O)[C@H](CC(N)=O)NC(=O)[C@H](CCC(N)=O)NC1=O [OT] | 20 to 50 nM and 47.9 nM | 20 to 50 nM and 34.8 nM | 20 to 50 nM and 21.5 nM | 20 to 50 nM and 42.1 nM | – |
| CCO [ethanol] | – | – | – | – | Social preference, developing zebrafish (zebrafish; high concentrations): inhibit social preference |
| CC[C@H](C)[C@@H]1NC(=O)[C@H](Cc2ccc(O)cc2)NC(=O)[C@@H](N)CSSC[C@@H](C(=O)N2CCC[C@H]2C(=O)N[C@H](C(=O)NCC(N)=O)[C@@H](C)CC)NC(=O)[C@H](CC(N)=O)NC(=O)[C@H](CO)NC1=O [zOT] (H-CYISNCPIG-NH2; disulfide 1-6) | – | 3.14 ± 1.1 nM | 317 ± 79 nM | 3.52 ± 0.94 nM | EC50 (Oxtr; HEK293 cells transfected with zebrafish Oxtr, 3H-inositol phosphate accumulation, 10 min pre-incubation, 25 min stimulation, 37 °C, duplicates, table: mean ± SEM, n = 3, read-out: Potency (EC50) at Oxtr): 2.99 ± 0.93 nM |
| CC[C@H](C)[C@@H]1NC(=O)[C@H](Cc2ccc(O)cc2)NC(=O)[C@@H](N)CSSC[C@@H](C(=O)N2CCC[C@H]2C(=O)N[C@@H](CCCNC(=N)N)C(=O)NCC(N)=O)NC(=O)[C@H](CC(N)=O)NC(=O)[C@H](CCC(N)=O)NC1=O [zVP] (H-CYIQNCPRG-NH2; disulfide 1-6) | 11 ± 3 nM | – | – | – | EC50 (Oxtrl): 27 ± 9.5 nM; EC50 (Avpr1aa): > 317 nM and 727 nM; EC50 (Avpr1ab): 2.79 ± 1.4 nM |
| carbetocin | – | – | – | – | Social deficits following MK-801 exposure (zebrafish; zebrafish exposed to glutamate antagonist MK-801): rescued social deficits |
